# Activity calls are given as the source filed them.
# Tests used:
# [1] = system: Streptococcus sp. 'group A'; experiment: Streptococcus pyogenes SK(-)GAS viability under kanamycin – luminescence, BacTiterGlo, confirmation, counter-screen for streptokinase expression inhibitor project, dose response (AID 1900); assay type: functional, organism-based
# [2] = Luminescence Cell-Based Dose Retest to Confirm Inhibitors of Cancer Stem Cells. [Related pubchem assays (depositor defined):AID2717, AID2721]; assay type: functional; settings: Homo sapiens
# Streptokinase A = molecular target: T1, Streptokinase A (Streptococcus pyogenes serotype M1, UniProt P10520); experiment: viability-normalized secreted streptokinase activity reduction – plasminogen activation absorbance, OD405, dose response (AID 1914); assay type: functional, Streptococcus pyogenes M1 GAS;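 also: secreted streptokinase activity via plasminogen activation per viability signal from cell pellet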
# T1 sequence (P10520 whole entry): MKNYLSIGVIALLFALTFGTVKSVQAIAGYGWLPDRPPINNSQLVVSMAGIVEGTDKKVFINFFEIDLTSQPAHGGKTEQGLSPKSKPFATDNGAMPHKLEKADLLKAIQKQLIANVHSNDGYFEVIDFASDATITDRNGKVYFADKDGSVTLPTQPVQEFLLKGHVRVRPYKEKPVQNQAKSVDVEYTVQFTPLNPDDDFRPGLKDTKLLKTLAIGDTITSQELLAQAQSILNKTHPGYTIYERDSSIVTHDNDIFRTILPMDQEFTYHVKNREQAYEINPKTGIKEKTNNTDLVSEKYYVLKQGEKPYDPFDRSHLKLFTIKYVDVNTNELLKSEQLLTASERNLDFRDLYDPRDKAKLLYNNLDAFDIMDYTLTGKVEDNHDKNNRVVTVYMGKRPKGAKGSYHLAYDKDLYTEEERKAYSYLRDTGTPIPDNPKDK
# Streptococcus = experiment: GAS UMAA2166 growth inhibition – luminescence, BacTiterGlo, counter-screen for streptokinase expression inhibitor project, dose response (AID 1915); assay type: functional, organism-based;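 also: potency for reduction of bacterial viability or growth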
# Vero = experiment: viability of Vero cells under compound – cytotoxicity control for flavivirus capping enzyme inhibitors (AID 588742); assay type: functional; settings: Chlorocebus sabaeus
# [3] = molecular target: Sphingosine 1-phosphate receptor 2 (Homo sapiens, UniProt O95136); experiment: Dose Response Cell Based Assay for Agonists of the S1P2 Receptor. [Related pubchem assays: 729, 736, 843 ]; assay type: functional
# Chain of Sphingosine 1-phosphate receptor 2 (O95136 whole entry): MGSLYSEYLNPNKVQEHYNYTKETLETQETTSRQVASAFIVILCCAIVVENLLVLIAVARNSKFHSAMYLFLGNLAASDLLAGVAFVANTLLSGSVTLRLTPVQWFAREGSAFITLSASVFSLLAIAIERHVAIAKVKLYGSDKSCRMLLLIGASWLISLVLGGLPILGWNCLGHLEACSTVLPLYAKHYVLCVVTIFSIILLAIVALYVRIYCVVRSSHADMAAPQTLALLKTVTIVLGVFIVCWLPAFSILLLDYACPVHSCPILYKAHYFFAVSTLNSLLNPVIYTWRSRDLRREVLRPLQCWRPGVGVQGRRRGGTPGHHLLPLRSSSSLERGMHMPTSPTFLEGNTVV
# Phospholipase D2 [4] = molecular target: T2, Phospholipase D2 (Homo sapiens, UniProt O14939); experiment: PLD2 Cellular Concentration Response Study.; assay type: functional
# T2 sequence (O14939 whole entry): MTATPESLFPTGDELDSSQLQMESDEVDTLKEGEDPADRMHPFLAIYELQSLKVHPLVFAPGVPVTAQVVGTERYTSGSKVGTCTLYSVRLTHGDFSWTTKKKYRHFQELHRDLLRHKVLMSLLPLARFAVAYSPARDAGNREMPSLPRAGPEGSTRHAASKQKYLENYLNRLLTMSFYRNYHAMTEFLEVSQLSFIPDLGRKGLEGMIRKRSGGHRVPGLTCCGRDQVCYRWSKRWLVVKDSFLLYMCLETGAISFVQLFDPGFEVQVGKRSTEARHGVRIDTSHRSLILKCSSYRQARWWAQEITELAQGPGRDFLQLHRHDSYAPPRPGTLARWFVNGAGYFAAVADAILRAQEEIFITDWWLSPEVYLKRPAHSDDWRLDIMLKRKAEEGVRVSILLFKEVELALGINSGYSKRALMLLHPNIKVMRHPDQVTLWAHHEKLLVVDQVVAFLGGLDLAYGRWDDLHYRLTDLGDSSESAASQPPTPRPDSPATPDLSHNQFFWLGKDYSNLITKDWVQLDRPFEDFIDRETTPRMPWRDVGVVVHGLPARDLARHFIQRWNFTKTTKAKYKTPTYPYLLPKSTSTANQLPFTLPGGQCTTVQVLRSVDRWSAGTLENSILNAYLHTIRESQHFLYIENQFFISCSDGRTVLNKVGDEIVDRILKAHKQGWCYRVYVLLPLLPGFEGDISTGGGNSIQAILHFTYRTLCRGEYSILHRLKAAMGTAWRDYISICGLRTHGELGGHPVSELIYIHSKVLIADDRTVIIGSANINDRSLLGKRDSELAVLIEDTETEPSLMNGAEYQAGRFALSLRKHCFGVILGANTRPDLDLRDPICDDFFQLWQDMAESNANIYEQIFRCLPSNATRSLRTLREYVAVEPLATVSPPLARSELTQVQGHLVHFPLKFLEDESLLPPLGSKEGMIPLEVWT
# Phospholipase D2 [5] = molecular target: T2, Phospholipase D2; experiment: Discovery of PLD2 inhibitors using the Purified Enzyme Concentration Response Assay.; assay type: functional
# Phospholipase D1 = Phospholipase D1 (Homo sapiens, UniProt Q13393); experiment: PLD1 Cellular Concentration Response Study.; assay type: functional
# Chain of Phospholipase D1 (Q13393 whole entry): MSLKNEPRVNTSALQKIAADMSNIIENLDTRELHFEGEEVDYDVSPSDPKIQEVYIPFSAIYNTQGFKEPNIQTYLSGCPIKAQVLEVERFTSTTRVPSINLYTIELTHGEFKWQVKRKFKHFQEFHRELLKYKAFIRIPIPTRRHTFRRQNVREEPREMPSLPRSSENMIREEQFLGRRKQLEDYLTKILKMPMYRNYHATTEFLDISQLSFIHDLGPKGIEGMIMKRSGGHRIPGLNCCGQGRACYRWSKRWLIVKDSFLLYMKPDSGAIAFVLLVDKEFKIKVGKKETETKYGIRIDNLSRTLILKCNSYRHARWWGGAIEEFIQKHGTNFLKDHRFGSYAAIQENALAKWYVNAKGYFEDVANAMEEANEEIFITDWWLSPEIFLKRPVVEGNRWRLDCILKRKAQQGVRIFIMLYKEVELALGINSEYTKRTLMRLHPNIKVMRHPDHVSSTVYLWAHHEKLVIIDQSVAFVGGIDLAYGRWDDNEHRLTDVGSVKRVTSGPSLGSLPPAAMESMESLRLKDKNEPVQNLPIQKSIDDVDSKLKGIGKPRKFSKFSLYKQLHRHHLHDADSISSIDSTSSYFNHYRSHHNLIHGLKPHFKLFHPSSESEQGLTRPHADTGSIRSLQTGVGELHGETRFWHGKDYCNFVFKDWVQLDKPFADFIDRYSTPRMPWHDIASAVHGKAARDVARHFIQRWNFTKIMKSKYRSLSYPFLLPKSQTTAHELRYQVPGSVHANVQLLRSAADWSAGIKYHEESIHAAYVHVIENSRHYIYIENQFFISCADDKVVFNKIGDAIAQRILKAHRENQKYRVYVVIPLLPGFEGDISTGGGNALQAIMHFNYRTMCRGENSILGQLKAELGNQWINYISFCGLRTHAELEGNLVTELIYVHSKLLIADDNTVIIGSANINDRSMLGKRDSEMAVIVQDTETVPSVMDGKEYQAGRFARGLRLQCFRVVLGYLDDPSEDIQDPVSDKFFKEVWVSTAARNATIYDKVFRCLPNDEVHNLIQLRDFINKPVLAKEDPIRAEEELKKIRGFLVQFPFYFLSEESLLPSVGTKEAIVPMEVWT
# [6] = TB: CFU replicating Measured in Microorganism System Using Imaging - 7108-05_Inhibitor_Dose_DryPowder_Activity_Set2.; assay type: functional
# [7] = Plasmodium falciparum Dd2 Sybr green parasite growth Measured in Cell-Based and Microorganism Combination System Using Plate Reader - 2153-01_Inhibitor_Dose_DryPowder_Activity_Set3.; assay type: functional
# [8] = Dd2 malaria parasite growth inhibition potency – SYBR Green, dry powder samples, dose response (AID 1159566); assay type: functional, cell-based;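 also: potency for growth inhibition with lower SYBR green DNA signal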
# [9] = P. falciparum Dd2 growth inhibitors, dose response, SYBR Green, cherry-picked samples (AID 1159567); assay type: functional, cell-based
# [10] = growth inhibition of PfATP4-mutant resistant parasites – NITD609-resistant line, SYBR Green, dry powder, dose response (AID 1159571); assay type: functional, cell-based;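 also: parasites synchronized at ring stage by sorbitol before testing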
# [11] = toxicity to human HepG2 hepatoma cells – cell-based, plate reader, dry powder samples, cytotoxicity control, dose response (AID 1159569); assay type: functional;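 also: inhibitor potency with signal falling toward the positive control level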
# [12] = growth inhibition of yeast DHODH-expressing 3D7 parasites – SYBR Green, dry powder samples, dose response (AID 1159570); assay type: functional, cell-based;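 also: parasite growth measured after 72 hours of compound exposure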
# [13] = antimalarial activity against Dd2 parasites – SYBR Green fluorescence, erythrocytes, dry powder, set 2, dose response (AID 1159574); assay type: functional, cell-based
# [14] = CellTiter-Glo luminescence survival assay, SW480 colon tumor line, concentration-response curve, half-maximal inhibitory concentration (AID 1117338); assay type: functional
# [15] = cytotoxicity toward HCT116 cells – cell-based, CellTiter-Glo luminescence, IC50, dose response (AID 1117332); assay type: functional; settings: HCT-116
# [16] = rise of 4N DNA cells, HeLa – IC50, dose response (AID 1117351); assay type: functional, cell-based
# [17] = HCT116 cell viability decrease, GSK3B pretreatment – CellTiter-Glo, IC50, dose response (AID 1117339); assay type: functional; settings: HCT-116
# [18] = SNU-C1 cell viability reduction, dose response, CellTiter-Glo luminescence (AID 1117323); assay type: functional, cell-based
# [19] = cytotoxicity toward HT-29 cells – cell-based, CellTiter-Glo luminescence, IC50, dose response (AID 1117330); assay type: functional
# [20] = Reduced DLD-1 viability, concentration-response, CellTiter-Glo luminescence (AID 1117352); assay type: functional
# [21] = rise of 2N DNA cells, HeLa – IC50, dose response (AID 1117349); assay type: functional, cell-based
# [22] = RKO cell viability reduction, dose response, CellTiter-Glo luminescence (AID 1117322); assay type: functional
# [23] = cytotoxicity toward Colo320 cells – cell-based, CellTiter-Glo luminescence, IC50, dose response (AID 1117334); assay type: functional; settings: COLO 320
structure (smiles),measurement,setting,value
Clc1ccc(-c2ccc(/C=N/Nc3cc(N4CCOCC4)nc(N4CCOCC4)n3)o2)cc1,EC50,[1],19.4 µM (active)
same,AC50,[2],1.73 µM (active)
same,EC50,Streptokinase A,> 150 µM (not active)
same,EC50,Streptococcus,17.1 µM (active)
same,CC50,Vero,34.6 µM (active)
same,EC50,[3],10.8 µM (not active)
O=C(NCCN1CCC2(CC1)C(=O)NCN2Cc1cccnc1)c1ccc2ccccc2c1,IC50,Phospholipase D2 [4],0.46 µM (active)
same,IC50,Phospholipase D2 [5],8.7 µM (active)
same,IC50,Phospholipase D1,20 µM (active)
Cn1c(NC(=O)c2ccccc2)nc2ncccc21,AbsAC90,[6],724.55 µM
COc1ccc(CN2C[C@@H](C)[C@H](OC)CN(C)C(=O)c3ccc(NC(=O)c4nc5ccccc5s4)cc3OC[C@H]2C)cc1,AC50,[7],1.06 µM (active)
same,AC50,[8],0.643 µM (active)
same,AC50,[9],0.854 µM (active)
same,AC50,[10],1.25 µM (active)
same,AC50,[11],> 92 µM (inactive)
same,AC50,[12],3.16 µM (active)
COc1ccc(S(=O)(=O)N(C)C[C@H]2OCc3ccccc3-c3c(n(C)c4ccccc34)C(=O)N([C@@H](C)CO)C[C@@H]2C)cc1,AC50,[13],1.47 µM (active)
O=C(O)CCc1nc2ccccc2[nH]1 [PROCODAZOLE],IC50,[14],> 20 µM (inactive)
same,IC50,[15],> 20 µM (inactive)
same,IC50,[16],> 10 µM (inactive)
same,IC50,[17],2.2 µM (active)
same,IC50,[18],> 20 µM (inactive)
same,IC50,[19],> 20 µM (inactive)
same,IC50,[20],2.42 µM (active)
same,IC50,[21],> 10 µM (inactive)
same,IC50,[22],> 20 µM (inactive)
same,IC50,[23],> 20 µM (inactive)

# Reference: ChEMBL document CHEMBL1201862, “PubChem BioAssay data set” (2004)
